In ChEMBL document CHEMBL3621065, “Structure-activity relationship studies of SETD8 inhibitors” (Medchemcomm, 2014):

Biological target: T1, N-lysine methyltransferase KMT5A (Homo sapiens, UniProt Q9NQR1)
T1 sequence (Q9NQR1 whole entry): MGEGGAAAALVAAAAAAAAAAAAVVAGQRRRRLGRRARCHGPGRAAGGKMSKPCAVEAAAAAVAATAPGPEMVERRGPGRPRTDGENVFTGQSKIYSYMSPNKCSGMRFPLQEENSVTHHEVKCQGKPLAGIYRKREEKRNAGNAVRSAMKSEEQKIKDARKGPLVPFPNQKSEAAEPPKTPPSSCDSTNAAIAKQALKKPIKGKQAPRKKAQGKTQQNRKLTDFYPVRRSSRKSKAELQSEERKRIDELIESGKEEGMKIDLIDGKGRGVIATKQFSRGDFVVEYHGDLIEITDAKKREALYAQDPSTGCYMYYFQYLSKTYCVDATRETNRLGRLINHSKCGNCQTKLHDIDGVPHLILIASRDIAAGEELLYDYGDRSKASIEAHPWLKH
Experiment: Inhibition of human SETD8 catalytic domain expressed in Escherichia coli assessed as reduction in transfer of tritiated methyl group from [3H]SAM to biotinylated H4 (1 to 24) peptide substrate by scintillation proximity assay

Row | SMILES | IC50 [µM]
1 | COc1cc2nc(N(C)CCCCCN3CCCC3)nc(NCCCCCN3CCCC3)c2cc1OC | > 250
2 | COc1cc2nc(N(C)c3ccccc3)nc(NCCCCCN3CCCC3)c2cc1OC | > 250
3 | COc1ccc(N(C)c2nc(NCCCCCN3CCCC3)c3cc(OC)c(OC)cc3n2)cc1 | > 250
4 | COc1cc2nc(N(C)c3ccc([N+](=O)[O-])cc3)nc(NCCCCCN3CCCC3)c2cc1OC | > 250
5 | COc1cc2nc(Nc3ccccc3)nc(NCCCCCN3CCCC3)c2cc1OC | > 250
6 | COc1ccc(Nc2nc(NCCCCCN3CCCC3)c3cc(OC)c(OC)cc3n2)cc1 | > 250
7 | COc1cc2nc(Nc3ccc(C(F)(F)F)cc3)nc(NCCCCCN3CCCC3)c2cc1OC | > 250
8 | COc1cc2nc(Nc3ccc([N+](=O)[O-])cc3)nc(NCCCCCN3CCCC3)c2cc1OC | > 250
9 | COc1cc2nc(-c3ccccc3)nc(NCCCCCN3CCCC3)c2cc1OC | > 250
10 | COc1ccc(-c2nc(NCCCCCN3CCCC3)c3cc(OC)c(OC)cc3n2)cc1 | > 250
11 | COc1cc2nc(-c3ccc(C(F)(F)F)cc3)nc(NCCCCCN3CCCC3)c2cc1OC | > 250
12 | COc1cc2nc(-c3ccc(F)cc3)nc(NCCCCCN3CCCC3)c2cc1OC | > 250
13 | c1ccc2c(NCCCCCN3CCCC3)nc(N3CCCC3)nc2c1 | > 250

Now from value to compound:

Row | IC50 [µM] | SMILES
14 | > 250 | COc1cc2nc(N3CCCC3)nc(NCC(=O)NCCN3CCN(C)CC3)c2cc1OC
15 | > 250 | COc1cc2nc(N3CCCC3)nc(N[C@H]3CC[C@H](N)CC3)c2cc1OC
16 | > 250 | COc1cc2nc(N3CCCC3)nc(N[C@H]3CC[C@H](CN)CC3)c2cc1OC
17 | > 250 | COc1cc2nc(N3CCCC3)nc(NCC(=O)NCCN3CCCC3)c2cc1OC
18 | > 250 | COc1cc2nc(N3CCCC3)nc(NCC(=O)NCCN3CCNCC3)c2cc1OC
19 | > 250 | COc1cc2nc(N(C)CCN3CCCC3)nc(NCCCCCN3CCCC3)c2cc1OC
20 | > 250 | COc1cc2nc(N(C)CCCN3CCCC3)nc(NCCCCCN3CCCC3)c2cc1OC
21 | > 250 | COc1cc2nc(N(C)CCCCN3CCCC3)nc(NCCCCCN3CCCC3)c2cc1OC
